Laboratory results taken from US11225480B2, “Malic enzyme inhibitors” (SUN PHARMA ADVANCED RESEARCH COMPANY LTD, priority 2019, dated 2022).

Legend:
Format in all cases: biochemical
[1] = target: T1, human ME3 enzyme (Homo sapiens, UniProt Q16798); assay: ME3 inhibition assay (diaphorase/resazurin coupled fluorescence); conditions: 10 μM compound concentration; read-out: Malic Enzyme 3 % inhibition (10 μM)
T1 sequence (Q16798 1-604): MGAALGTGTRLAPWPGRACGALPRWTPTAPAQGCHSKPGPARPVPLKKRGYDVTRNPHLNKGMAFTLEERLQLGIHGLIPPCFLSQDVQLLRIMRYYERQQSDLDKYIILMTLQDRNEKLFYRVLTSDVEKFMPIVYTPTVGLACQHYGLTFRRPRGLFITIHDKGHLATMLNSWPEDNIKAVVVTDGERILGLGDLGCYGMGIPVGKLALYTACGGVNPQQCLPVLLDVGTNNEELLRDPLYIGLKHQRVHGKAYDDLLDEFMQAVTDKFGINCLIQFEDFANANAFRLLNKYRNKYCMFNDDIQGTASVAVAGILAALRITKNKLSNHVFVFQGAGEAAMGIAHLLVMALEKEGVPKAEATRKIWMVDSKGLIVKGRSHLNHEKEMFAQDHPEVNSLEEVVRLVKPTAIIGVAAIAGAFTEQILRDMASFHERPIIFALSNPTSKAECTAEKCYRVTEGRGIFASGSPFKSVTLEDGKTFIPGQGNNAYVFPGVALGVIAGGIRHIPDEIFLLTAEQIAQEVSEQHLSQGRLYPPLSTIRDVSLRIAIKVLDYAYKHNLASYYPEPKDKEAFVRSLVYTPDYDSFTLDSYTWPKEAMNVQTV
Summary of the method: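 Coupled read-out: NADPH made by human ME3 (20 nM stock) drives diaphorase conversion of resazurin (50 μM) to resorufin; buffer 50 mM Tris-HCl pH 7.5, 10 mM MnCl2, 3 mM L-malate.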

[2] = target: human ME2 enzyme (Homo sapiens, UniProt P23368); assay: ME2 inhibition assay (diaphorase/resazurin coupled fluorescence); conditions: 10 μM compound concentration; read-out: Malic Enzyme 2 % inhibition (10 μM)
Method: ME2 catalyzes the oxidative decarboxylation of malate to pyruvate with conversion of the co-factor β-NAD+ to β-NADH. In the fluorescence assay, a coupled reaction is set up where in an enzyme, Diaphorase, utilizes NADH generated by ME2, to convert the dye resazurin to a fluorescent molecule resorufin. Resorufin has a characteristic fluorescence with excitation/emission at 540/600 nm (SLAS Discov., 2017 April 1:2472555217706649).
The enzyme activity inhibition assay is set up in a 200 μL final reaction volume in a 96-well plate. As per the experimental design, 2 μL of the compounds at 100× the desired concentration (10 μM) in DMSO were added to the respective wells with 178 μL of assay buffer (50 mM Tris-HCl pH 7.5, 10 mM MnCl2, 7 mM L-malate, 50 μM Resazurin and 0.025 mg/ml Diapharose). The 96-well plate was incubated on a plate shaker at room temperature for 15 minutes protected from light. The well contents were gently mixed by adding 10 μL of 60 nM human ME2 enzyme to the wells and the plate was incubated on a shaker at room temperature for 5 minutes protected from light. Suitable ‘enzyme only’ and ‘no enzyme’ controls were included in the experiment. The enzymatic reaction was started by adding 10 μL of 2 mM β-NAD+. The reaction was gently mixed and the plate was initially left on a shaker at room temperature for −7 minutes protected from light. Later, the plate was incubated without shaking at room temperature for 2 hours. At the end of 2 hours, the fluorescence of the wells was measured at excitation 540 nm and emission 600 nm. The % enzyme activity of the compounds is obtained by normalizing the data with enzyme only (100%) and no enzyme controls (0%) using GraphPad Prism software 7.04.

[3] = target: T2, human ME1 enzyme (Homo sapiens, UniProt P48163); assay: ME1 inhibition assay (diaphorase/resazurin coupled fluorescence); conditions: 10 μM compound concentration; read-out: Malic Enzyme 1 % inhibition (10 μM)
T2 sequence (P48163 1-572): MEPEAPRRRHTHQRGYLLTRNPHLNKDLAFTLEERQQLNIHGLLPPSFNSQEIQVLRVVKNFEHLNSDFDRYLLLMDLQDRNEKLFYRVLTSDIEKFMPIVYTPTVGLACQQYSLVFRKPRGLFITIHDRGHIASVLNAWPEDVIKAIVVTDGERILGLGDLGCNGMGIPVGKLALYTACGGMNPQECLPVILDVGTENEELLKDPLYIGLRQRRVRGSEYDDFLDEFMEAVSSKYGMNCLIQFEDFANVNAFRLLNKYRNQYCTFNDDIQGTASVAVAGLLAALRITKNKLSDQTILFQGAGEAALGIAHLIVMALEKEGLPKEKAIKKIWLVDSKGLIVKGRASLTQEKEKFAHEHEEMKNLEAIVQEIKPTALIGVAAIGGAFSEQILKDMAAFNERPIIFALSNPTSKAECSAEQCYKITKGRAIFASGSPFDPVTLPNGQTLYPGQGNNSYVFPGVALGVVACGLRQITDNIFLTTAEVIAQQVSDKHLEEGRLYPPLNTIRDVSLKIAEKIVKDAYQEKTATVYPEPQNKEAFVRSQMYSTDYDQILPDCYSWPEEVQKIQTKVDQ
Summary of the method: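 Compounds at 10 μM preincubated 15 min in 50 mM Tris-HCl pH 7.5, 10 mM MnCl2, 2 mM L-malate, 10 μM resazurin, 0.01 mg/ml diaphorase, then human ME1 added for 5 min; reaction started with NADP+ and run 2 h at room temperature. Resorufin fluorescence (ex 540/em 600 nm) normalized to enzyme-only (100%) and no-enzyme (0%) controls.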

human ME2 enzyme, sequence (P23368 19-584): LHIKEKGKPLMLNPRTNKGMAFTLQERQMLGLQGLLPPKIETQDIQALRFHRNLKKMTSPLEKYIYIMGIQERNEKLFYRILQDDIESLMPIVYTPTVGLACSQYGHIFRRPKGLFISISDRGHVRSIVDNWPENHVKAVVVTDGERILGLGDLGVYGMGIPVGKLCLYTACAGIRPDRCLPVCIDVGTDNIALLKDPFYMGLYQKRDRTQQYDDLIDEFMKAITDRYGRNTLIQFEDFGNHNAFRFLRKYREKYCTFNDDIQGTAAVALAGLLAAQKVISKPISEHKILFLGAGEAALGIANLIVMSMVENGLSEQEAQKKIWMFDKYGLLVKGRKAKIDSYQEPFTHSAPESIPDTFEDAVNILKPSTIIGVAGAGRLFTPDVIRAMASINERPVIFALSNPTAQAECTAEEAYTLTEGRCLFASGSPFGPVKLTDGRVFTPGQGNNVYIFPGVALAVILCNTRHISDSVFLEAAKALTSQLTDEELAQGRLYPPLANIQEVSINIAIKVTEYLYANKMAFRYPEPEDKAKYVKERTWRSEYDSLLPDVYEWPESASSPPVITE

| Compound | inhibition at 10 µM [1] | inhibition at 10 µM [2] | inhibition at 10 µM [3] |
| --- | --- | --- | --- |
| O=C(O)c1ccc(-c2cc(C(=O)N3CCN(c4ccc(O)cc4)CC3)cc(N3CCOCC3)n2)cc1 [I.42, 4-[4-[4-(4-Hydroxy-phenyl)-piperazine-1-carbonyl]-6-morpholino-2-pyridyl]-benzoic acid] | > 90% | > 90% | > 90% |
| Cc1ccccc1CCC(=O)N1CCN(c2ccc(O)cn2)CC1 [I.107, 1-[4-(5-Hydroxy-pyridin-2-yl)-piperazin-1-yl]-3-o-tolyl-propan-1-one] | > 90% | > 90% | > 90% |
| O=C(COc1ccc(F)cc1)N1CCN(c2ccc(O)cn2)CC1 [I.164, 2-(4-Fluoro-phenoxy)-1-[4-(5-hydroxy-pyridin-2-yl)-piperazin-1-yl]-ethanone] | > 90% | > 90% | > 90% |
| O=C(Cc1ccccc1)N1CCN(c2ccc(O)cc2)CC1 [I.1, 1-[4-(4-hydroxyphenyl)piperazin-1-yl]-2-phenylethanone] | > 90% | > 90% | > 90% |
| O=C(CCc1cccc(F)c1)N1CCN(c2ccc(O)cn2)CC1 [I.92, 3-(3-Fluoro-phenyl)-1-[4-(5-hydroxy-pyridin-2-yl)-piperazin-1-yl]-propan-1-one] | > 90% | > 90% | > 90% |
| COc1ccc(C(CC(=O)N2CCN(c3ccc(O)cn3)CC2)c2ccc(OC)cc2)cc1 [I.93, 1-[4-(5-Hydroxy-2-pyridyl)-piperazin-1-yl]-3,3-bis(4-methoxy-phenyl)-propan-1-one] | > 90% | 70 to 89% | 70 to 89% |
| O=C(CC12CC3CC(CC(O)(C3)C1)C2)N1CCN(c2ccc(O)cn2)CC1 [I.56, 2-(3-Hydroxy-1-adamantyl)-1-[4-(5-hydroxy-2-pyridyl)-piperazin-1-yl]ethanone] | > 90% | 70 to 89% | 50 to 69% |
| O=C(c1ccnc(N2CCCCC2)c1)N1CCN(c2ccc(O)cc2)CC1 [I.50, [4-(4-Hydroxy-phenyl)-piperazin-1-yl]-[2-(1-piperidyl)-4-pyridyl]-methanone] | > 90% | > 90% | > 90% |
| O=C(CCc1cccc(C(F)(F)F)c1)N1CCN(c2ccc(O)cn2)CC1 [I.72, 1-[4-(5-Hydroxy-pyridin-2-yl)-piperazin-1-yl]-3-(3-trifluoro-methylphenyl)-propan-1-one] | > 90% | 70 to 89% | > 90% |
| O=C(CCc1cc(F)c(F)c(F)c1)N1CCN(c2ccc(O)cn2)CC1 [I.170, 1-[4-(5-Hydroxy-pyridin-2-yl)-piperazin-1-yl]-3-(3,4,5-trifluoro-phenyl)-propan-1-one] | > 90% | > 90% | > 90% |
| O=C(Cc1cc(F)cc(F)c1)N1CCN(c2ccc(O)cc2)CC1 [I.148, 2-(3,5-difluoro-phenyl)-1-[4-(4-hydroxy-phenyl)-piperazin-1-yl]-ethanone] | > 90% | > 90% | > 90% |
| O=C(CCc1ccc(C(F)(F)F)cc1)N1CCN(c2ccc(O)cn2)CC1 [I.139, 3-(4-Trifluoro-methylphenyl)-1-[4-(5-hydroxy-pyridin-2-yl)-piperazin-1-yl]-propan-1-one] | > 90% | > 90% | > 90% |
| O=C(Cc1c[nH]c2cc(F)ccc12)N1CCN(c2ccc(O)cn2)CC1 [I.158, 2-(6-Fluoro-1H-indol-3-yl)-1-[4-(5-hydroxy-pyridin-2-yl)-piperazin-1-yl]-ethanone] | > 90% | > 90% | > 90% |
| O=C(CSc1ccc(F)cc1)N1CCN(c2ccc(O)cn2)CC1 [I.163, 2-(4-Fluoro-phenyl-sulfanyl)-1-[4-(5-hydroxy-pyridin-2-yl)-piperazin-1-yl]-ethanone] | > 90% | > 90% | > 90% |
| O=C(CNC12CC3CC(CC(C3)C1)C2)N1CCN(c2ccc(O)cn2)CC1 [I.83, 2-(1-Adamantyl-amino)-1-[4-(5-hydroxy-2-pyridyl)-piperazin-1-yl]ethanone] | > 90% | 50 to 69% | 50 to 69% |
| O=C(CSc1ccccc1Br)N1CCN(c2ccc(O)cn2)CC1 [I.143, 2-(2-Bromo-phenylsulfanyl)-1-[4-(5-hydroxy-pyridin-2-yl)-piperazin-1-yl]-ethanone] | > 90% | > 90% | > 90% |
| O=C(C(c1ccccc1)c1ccccc1)N1CCN(c2ccc(O)cn2)CC1 [I.48, 1-[4-(5-Hydroxy-2-pyridyl)-piperazin-1-yl]-2,2-diphenyl-ethanone] | > 90% | 70 to 89% | 70 to 89% |
| O=C(Cc1c[nH]c2cc(F)c(F)cc12)N1CCN(c2ccc(O)cn2)CC1 [I.160, 2-(5,6-Difluoro-1H-indol-3-yl)-1-[4-(5-hydroxy-pyridin-2-yl)-piperazin-1-yl]-ethanone] | > 90% | > 90% | > 90% |
| O=C(C(=O)N1CCN(c2ccc(O)cn2)CC1)c1c[nH]c2ccc(F)cc12 [I.168, 1-(5-Fluoro-1H-indol-3-yl)-2-[4-(5-hydroxy-pyridin-2-yl)-piperazin-1-yl]-ethane-1,2-dione] | > 90% | > 90% | > 90% |
| O=C(CC(O)c1ccccc1)N1CCN(c2ccc(O)cn2)CC1 (stereo not drawn) [I.130, 3-Hydroxy-1-[4-(5-hydroxy-pyridin-2-yl)-piperazin-1-yl]-3-phenyl-propan-1-one] | > 90% | > 90% | 70 to 89% |
| O=C(CCc1ccccc1)N1CCN(c2ccc(O)cn2)CC1 [I.45, 1-[4-(5-hydroxy-pyridin-2-yl)-piperazin-1-yl]-3-phenyl-propan-1-one] | > 90% | 70 to 89% | > 90% |
| O=C(Cc1c[nH]c2ccc(F)cc12)N1CCN(c2ccc(O)cc2)CC1 [I.150, 2-(5-fluoro-1H-indol-3-yl)-1-[4-(4-hydroxy-phenyl)-piperazin-1-yl]-ethanone] | > 90% | > 90% | > 90% |
